pIC50: −log10 of the molar value. Calls of active or inactive are those of the source. The rule behind the calls is not given here.
Experiments:
Homo sapiens [1] = species: Homo sapiens; test: Tested for inhibitory activity against LTB4 induced chemotaxis of human neutrophils; type: functional
Cavia porcellus = species: Cavia porcellus; test: Tested for the inhibitory activity against neutrophil infiltration in response to LTB4 in guinea pig; type: functional
Mus musculus = test: Oral administration of compound in 0.5% methyl cellulose inhibits the LTB4-induced response; type: functional
Homo sapiens [2] = species: Homo sapiens; test: Tested for inhibitory activity against LTB4 induced up-regulation of CD11b on human neutrophils; type: functional
[3] = molecular target: Leukotriene B4 receptor 1 (Mus musculus, UniProt O88855); test: Tested for antagonistic activity in mouse spleen membrane against LTB4 receptor; type: functional, cell membranes
Chain of Leukotriene B4 receptor 1 (O88855 whole entry): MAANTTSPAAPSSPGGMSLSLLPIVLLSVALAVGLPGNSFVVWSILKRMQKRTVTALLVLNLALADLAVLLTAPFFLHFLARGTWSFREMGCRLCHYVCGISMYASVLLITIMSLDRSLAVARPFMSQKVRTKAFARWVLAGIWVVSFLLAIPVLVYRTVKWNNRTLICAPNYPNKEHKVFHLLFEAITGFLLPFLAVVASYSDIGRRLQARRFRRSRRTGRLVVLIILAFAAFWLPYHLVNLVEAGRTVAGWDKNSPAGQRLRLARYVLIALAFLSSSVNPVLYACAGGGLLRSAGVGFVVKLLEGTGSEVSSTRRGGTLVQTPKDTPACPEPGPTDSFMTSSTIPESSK

[4] = molecular target: T1, Prostaglandin G/H synthase 2 (Ovis aries) (UniProt P79208); test: Tested for inhibition of the Prostaglandin G/H synthase at 10 uM conc.; No inhibition
T1 sequence (whole entry): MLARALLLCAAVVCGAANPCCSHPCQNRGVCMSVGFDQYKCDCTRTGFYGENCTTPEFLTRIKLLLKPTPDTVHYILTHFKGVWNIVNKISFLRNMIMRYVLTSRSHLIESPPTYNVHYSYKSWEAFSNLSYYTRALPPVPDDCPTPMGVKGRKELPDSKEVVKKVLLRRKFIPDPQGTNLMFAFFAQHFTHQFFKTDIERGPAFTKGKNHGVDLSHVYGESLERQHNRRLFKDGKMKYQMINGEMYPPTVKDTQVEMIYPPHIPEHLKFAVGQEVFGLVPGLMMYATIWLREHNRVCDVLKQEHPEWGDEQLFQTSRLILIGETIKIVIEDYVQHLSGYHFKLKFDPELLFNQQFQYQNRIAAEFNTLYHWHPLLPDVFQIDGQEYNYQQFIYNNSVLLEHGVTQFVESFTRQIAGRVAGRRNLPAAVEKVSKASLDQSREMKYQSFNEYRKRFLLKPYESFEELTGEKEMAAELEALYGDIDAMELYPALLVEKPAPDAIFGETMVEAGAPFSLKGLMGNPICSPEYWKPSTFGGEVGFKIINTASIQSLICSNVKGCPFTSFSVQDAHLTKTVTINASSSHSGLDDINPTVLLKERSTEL

Q: How did the pIC50 (Homo sapiens [1]) turn out when `O=C(O)C1(c2ccc3c(c2)OC[C@H](Cc2ccc(-c4ccccc4)cc2)[C@H]3O)CCCC1` was run?
A: The pIC50 was 8.28.

Q: What about the ED50 (Cavia porcellus) of the same compound?
A: The ED50 was 0.26 mg/kg.

Q: What about the ED50 (Mus musculus) of the same compound?
A: Its ED50 is 4.2 mg/kg.

Q: And the pIC50 (Homo sapiens [2])?
A: Its pIC50 is 6.37.

Q: What about the pIC50 [3] of the same compound?
A: The pIC50 was 7.52.

Q: And the inhibition [4]?
A: Its inhibition is “inactive”.
